Measured values as given in US20230219934A1, “2,3-DISUBSTITUTED PYRIDO[3,4-B]PYRAZINE-CONTAINING COMPOUNDS AS KINASE INHIBITORS” (Purdue Research Foundation, priority 2020, published 2023).
Blank lines part the entries; values can stand above or below the molecule they belong to.

Experiments:
EKVX (NSCLC) = test: NCI-60 GI50 determination, EKVX; type: cell-based; settings: Homo sapiens, NCI Developmental Therapeutics Program in-vitro testing, 48 h
Method: (§1) According to the National Cancer Institute, Bethesda, Md. (the protocol of the Drug Evaluation Branch), the effects of compounds are measured as follows: Cell suspensions are diluted to a target cell density of 5000-40,000 cells per well (based on cell growth characteristics) in a 96-well microtiter plates. The test compounds were evaluated at five concentrations (10-fold dilutions) with the highest concentration being 100 μM. The incubation period was 48 h under 5% carbon dioxide atmosphere and 100% humidity. A sulforhodamine B assay was used to assay the cells. Optical densities of the wells were read by a plate reader the optical densities were processed into GI50 (the concentration that causes 50% growth inhibition).
(§2) The NCI renamed the IC50 value, the concentration of compound that causes 50% growth inhibition, as follows.
(§3) GI50=100×(T−T0)/(C−T0)=50, where T=the optical density of the test well after a 48-h period of exposure to test drug, T0=the optical density at time zero, C=the control optical density. The control is the well not treated with test agent (https://dtp.cancer.gov/databases_tools/docs/compare/compare_methodology.htm).

[1] = system: KM12 (colon and driven by TrkA kinase); test: NCI-60 GI50 determination, KM12; type: cell-based; settings: Homo sapiens, NCI Developmental Therapeutics Program in-vitro testing, 48 h
Method: as §1, §2, §3

[2] = system: some lung and colon cancers; test: NCI-60 potency comparison on lung and colon cancers; type: cell-based; settings: more potently than HSL212
Method: as §1, §2, §3

[3] = system: K562 cell line (leukemia); test: NCI-60 GI50 determination, K562; type: cell-based; settings: Homo sapiens, NCI Developmental Therapeutics Program in-vitro testing, 48 h
Method: as §1, §2, §3

Oral bioavailability = settings: in vivo
[4] = system: cell lines harboring RET solvent front mutations; test: Inhibition of selpercatinib and pralsetinib-resistant cell lines; type: cell-based
MiaPaCa-2 = test: MIA PaCa-2 pancreatic cancer cell growth inhibition (CellTitre Blue viability); type: cell-based; settings: Homo sapiens, pancreatic cancer cell line, 72 hours
Method: Cell Culture: MIA PaCa-2 cells were cultured in RPMI media supplemented with 10% fetal bovine serum, 1% GlutaMax Supplement (GIBCO™), 1% Penicillin-Streptomycin (GIBCO™). Cells were seeded in a 96-well plate at 1.1×10^4 cells/mL. Cells were incubated at […] for 24 hours after which plates were treated in triplicates with 10 uL of compound (0.6 μM in DMSO) that was further diluted in the same media (5 μL of compound into 145 μL of media). For IC50 compounds were tested at 9 different concentrations, initial concentration of 0.6 μM in DMSO and subsequently diluted by a third for the other 8 concentrations. This was incubated at […] for 72 hours after which 10 uL of The CellTitre Blue Cell Viability Assay (Promega, Madison Wis.) was added to each well and incubated at […] for 3 hours. Plates were read on a CYTATION™ 5 Cell Imaging Multi-Mode Reader (BioTek). Appropriate controls were used. Graphed using GraphPadPrism 5.0 Software.

[5] = system: tumor harboring solvent front RET810 mutation; test: Growth of tumor harboring solvent front RET810 mutation; type: in vivo, mice; settings: HSL476 at 25 mg/Kg (daily)
Tolerability in mice = type: in vivo
[6] = system: cell line harboring RET G810R; test: Inhibition of cell line harboring RET G810R; type: cell-based; settings: under similar conditions

SMILES: Cc1nc2cncc(C#Cc3cncc(C(=O)Nc4ccc(CN5CCN(C)CC5)c(C(F)(F)F)c4)c3)c2nc1C [HSL211, 5-((2,3-dimethylpyrido[3,4-b]pyrazin-8-yl)ethynyl)-N-(4-((4-methylpiperazin-1-yl)methyl)-3-(trifluoromethyl)phenyl)nicotinamide]
- GI50 (EKVX (NSCLC)): 484 nM
- GI50 [1]: < 5 nM
- Potency relative to HSL212 on some lung and colon cancers [2]: ~100 ×
- GI50 [3]: < 5 nM

SMILES: CN1CCN(Cc2ccc(NC(=O)c3cncc(C#Cc4cncc5nccnc45)c3)cc2C(F)(F)F)CC1 [HSL212, N-(4-((4-methylpiperazin-1-yl)methyl)-3-(trifluoromethyl)phenyl) (pyrido[3,4-b]pyrazin-8-ylethynyl)nicotinamide]
- GI50 (EKVX (NSCLC)): > 50000 nM
- GI50 [1]: 136 nM
- GI50 [3]: < 5 nM

SMILES: Cc1nc2cnc(N)c(C#Cc3cncc(C(=O)Nc4ccc(CN5CCN(C)CC5)c(C(F)(F)F)c4)c3)c2nc1C [HSL476, 5-((7-amino-2,3-dimethylpyrido[3,4-b]pyrazin-8-yl)ethynyl)-N-(4-((4-methylpiperazin-1-yl)methyl)-3-(trifluoromethyl)phenyl)nicotinamide]
- Oral bioavailability (Oral bioavailability): orally bioavailable
- IC50 [4]: < 20 nM
- IC50 (MiaPaCa-2): 25 nM
- Effect on growth of tumor harboring solvent front RET810 mutation [5]: could reduce growth tumor
- Tolerability (Tolerability in mice): well tolerated
- IC50 [6]: 18 nM

- IC50 [6]: 2620 nM
SMILES: COc1ccc(CN2C3CC2CN(c2ccc(-c4cc(OCC(C)(C)O)cn5ncc(C#N)c45)cn2)C3)cn1 [Selpercatinib, reference compound]
- Effect on growth of tumor harboring solvent front RET810 mutation [5]: ineffective

SMILES: Cc1ccc(C(=O)Nc2ccc(CN3CCN(C)CC3)c(C(F)(F)F)c2)cc1C#Cc1cnc2cccnn12 [ponatinib]
- IC50 [6]: 77 nM

- IC50 [6]: 7320 nM
SMILES: CO[C@]1(C(=O)N[C@@H](C)c2ccc(-n3cc(F)cn3)nc2)CC[C@H](c2nc(C)cc(Nc3cc(C)[nH]n3)n2)CC1 [pralsetinib]
